Test results taken from patent publication US20220274914A1, “TRICYCLIC DERIVATIVES AS HYPOXIA INDUCIBLE FACTOR-2(ALPHA) INHIBITORS” (NIKANG THERAPEUTICS, INC., priority 2019, published 2022).

biological target: T1, HIF-2α (Homo sapiens, UniProt Q99814); assay: VEGF ELISA Assay; type: cell-based; details: VEGF expression in 786-0 cells; VEGF in culture medium by ELISA; four parameter dose-response fit
T1 construct: endogenous in cells; host or cells: 786-0 cells
Experimental: The ability of the disclosed compounds to inhibit HIF-2α was measured by determining VEGF expression in 786-0 cells. About 7500 786-0 cells were seeded into each well of a 96-well, white, clear bottom plate (07-200-566, Fisher Scientific) with 200 ul growth medium. Four hours later, compounds were dispensed into wells by Tecan D300e digital dispenser with starting concentration of 10 uM and […] of dilution down to 1 nM as final concentration. Each concentration of treatment was performed in duplicate. About 20 hours later, medium was removed and fresh medium was added, followed by compounds treatment as described above. 24 hours later, cell culture medium was collected to determine VEGF concentration using an ELISA kit (R&D systems, cat #DVE00) following the manufacturer's instruction.
The EC50 is calculated by GraphPad Prism using the dose-response-inhibition (four parameter) equation. The plate with cells was then subjected to CellTiter-Glo luminescence cell viability assay (Promega) to determine the effect of these compounds on cell numbers after the above treatment.

T1 sequence (Q99814 whole entry): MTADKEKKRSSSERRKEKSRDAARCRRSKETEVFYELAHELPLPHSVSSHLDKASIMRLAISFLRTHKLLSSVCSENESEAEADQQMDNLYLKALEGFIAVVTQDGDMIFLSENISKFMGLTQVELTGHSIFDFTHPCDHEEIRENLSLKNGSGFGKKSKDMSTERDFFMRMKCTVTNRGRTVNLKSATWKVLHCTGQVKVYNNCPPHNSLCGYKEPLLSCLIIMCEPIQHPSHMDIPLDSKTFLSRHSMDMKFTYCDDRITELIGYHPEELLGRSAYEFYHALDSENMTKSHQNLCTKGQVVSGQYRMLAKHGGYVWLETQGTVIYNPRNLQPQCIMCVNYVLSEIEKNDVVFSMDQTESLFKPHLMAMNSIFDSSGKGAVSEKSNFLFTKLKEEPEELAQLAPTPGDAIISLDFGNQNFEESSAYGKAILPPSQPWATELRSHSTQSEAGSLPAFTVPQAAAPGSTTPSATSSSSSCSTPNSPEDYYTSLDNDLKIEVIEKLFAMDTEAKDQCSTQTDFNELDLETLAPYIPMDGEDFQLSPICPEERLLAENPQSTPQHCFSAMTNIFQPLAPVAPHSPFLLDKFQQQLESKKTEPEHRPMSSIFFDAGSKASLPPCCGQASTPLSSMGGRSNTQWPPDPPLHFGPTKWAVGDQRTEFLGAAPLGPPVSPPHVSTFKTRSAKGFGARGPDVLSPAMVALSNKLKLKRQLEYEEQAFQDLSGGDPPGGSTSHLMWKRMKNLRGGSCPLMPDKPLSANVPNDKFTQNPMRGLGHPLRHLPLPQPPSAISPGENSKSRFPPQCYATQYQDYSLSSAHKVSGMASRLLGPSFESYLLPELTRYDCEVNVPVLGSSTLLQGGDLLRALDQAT

| EC50 | SMILES |
| --- | --- |
| 3.05 µM | CC1CCC2(O)c3c(ccc(Oc4cc(F)cc(C#N)c4)c31)C(F)(F)C2(F)F (single isomer, unassigned) [the other of 7-1 and 7-2] |
| 0.534 µM | C=C1CCC2(O)c3c(ccc(Oc4cc(F)cc(C#N)c4)c31)C(F)(F)C2(F)F (stereo not drawn) [Compound 3, 3-fluoro-5-((1,1,2,2-tetrafluoro-8a-hydroxy-6-methylene-1,2,6,7,8,8a-hexahydroacenaphthylen-5-yl)oxy)benzonitrile] |
| 0.023 µM | N#Cc1cc(F)cc(Oc2ccc3c4c2C(F)C(F)(F)CC4(O)C(F)(F)C3(F)F)c1 (stereo not drawn) [8-1 or 8-2] |
| 0.372 µM | CC1CCC2(O)c3c(ccc(Oc4cc(F)cc(C#N)c4)c31)C(F)(F)C2(F)F (single isomer, unassigned) [one of 7-1 and 7-2] |
| 0.006 µM | N#Cc1cc(F)cc(Oc2ccc3c4c2CCC[C@]4(O)C(F)(F)C3(F)F)c1 [Compound 2, (R)-3-fluoro-5-((1,1,2,2-tetrafluoro-8a-hydroxy-1,2,6,7,8,8a-hexahydroacenaphthylen-5-yl)oxy)benzonitrile] |
| 0.037 µM | N#Cc1cc(F)cc(Oc2ccc3c4c2CCCC4(O)C(F)(F)C3(F)F)c1 (stereo not drawn) [Compound 1, 3-fluoro-5-((1,1,2,2-tetrafluoro-8a-hydroxy-1,2,6,7,8,8a-hexahydroacenaphthylen-5-yl)oxy)benzonitrile] |
